In patent US9458456B2, “Methods and compositions for the diagnosis, classification, and treatment of cancer” (UNIVERSITY OF SOUTH ALABAMA, priority 2011, dated 2016):

Tests used:
Format in all cases: cell-based
Settings in all cases: Homo sapiens
[1] = test system: C4-2 castration-resistant prostate cancer cells; assay: Docetaxel cell viability, C4-2 cells
Description: (§1) Castration-resistant prostate cancer cells (C4-2), Myb-knockdown castration-resistant prostate cancer cells (C4-2 shMyb), androgen-dependent prostate cancer cells (LNCap-Neo), Myb-overexpressing androgen-dependent prostate cancer cells (LNCaP-Myb), were treated with increasing concentrations of Docetaxel and the viability tested at 48 hr and 72 hr post-treatment. […] Table 2 summarizes the IC50 values for docetaxel in the various cell lines.

[2] = test system: C4-2 shMyb Myb-knockdown castration-resistant prostate cancer cells; assay: Docetaxel cell viability, C4-2shMyb cells
Description: as §1

[3] = test system: LNCaP-Myb Myb-overexpressing androgen-dependent prostate cancer cells; assay: Docetaxel cell viability, LNCaP-Myb cells
Description: as §1

[4] = test system: LNCaP-Neo androgen-dependent prostate cancer cells; assay: Docetaxel cell viability, LNCaP-Neo cells
Description: as §1

## CC(=O)O[C@@]12CO[C@@H]1C[C@H](O)[C@@]1(C)C(=O)[C@H](O)C3=C(C)[C@@H](OC(=O)[C@H](O)[C@@H](NC(=O)OC(C)(C)C)c4ccccc4)C[C@@](O)([C@@H](OC(=O)c4ccccc4)[C@H]21)C3(C)C [Docetaxel]
[1]; C4-2, 48 hours
  IC50: 18.2 µM
[1]; C4-2, 72 hours
  IC50: 13.1 µM
[2]; 48 hours
  IC50: 7 µM
[2]; 72 hours
  IC50: 4.8 µM
[3]; 48 hours
  IC50: 20.6 µM
[3]; 72 hours
  IC50: 14.8 µM
[4]; 48 hours
  IC50: 7.6 µM
[4]; 72 hours
  IC50: 4.9 µM
